Experimental data from US20180030500A1, “ENRICHMENT AND SELECTIVE CULTURE OF MYCOBACTERIA” (priority 2015, published 2018).
Where two headings read alike, the source gives them in different places.

Assays:
[1] = system: Mycobacteria; settings: 20 strains, 7 days
[2] = system: Pseudomonas aeruginosa; settings: 50 strains, 7 days
[3] = system: Enterobacteria; settings: 7 strains, 7 days
[4] = system: Gram-positive bacteria; settings: 10 strains, 7 days
[5] = system: Fungi/yeasts; settings: 8 strains, 7 days
[6] = selective agent 32 mg/l in medium L
[7] = selective agent 64 mg/l in medium L
[8] = selective agent 128 mg/l in medium L
[9] = selective agent 400 mg/l in medium L
[10] = selective agent 800 mg/l in medium L
[11] = selective agent 1600 mg/l in medium L
[12] = selective agent 5 mg/l in medium L
[13] = selective agent 10 mg/l in medium L
[14] = selective agent 20 mg/l in medium L
[15] = selective agent 16 mg/l in medium L
[16] = selective agent 0.125 mg/l in medium L
[17] = selective agent 0.25 mg/l in medium L
[18] = selective agent 0.5 mg/l in medium L
[19] = selective agent 2.5 mg/l in medium L
[20] = selective agent 5.0 mg/l in medium L

## colistin methanesulfonate
[1]; [6]
  Number of strains having shown growth: 20
  Percentage of strains having shown growth: (100%)
[1]; [7]
  Number of strains having shown growth: 20
  Percentage of strains having shown growth: (100%)
[1]; [8]
  Number of strains having shown growth: 20
  Percentage of strains having shown growth: (100%)
[2]; [6]
  Number of strains having shown growth: 5
  Percentage of strains having shown growth: (10%)
[2]; [7]
  Number of strains having shown growth: 5
  Percentage of strains having shown growth: (10%)
[2]; [8]
  Number of strains having shown growth: 5
  Percentage of strains having shown growth: (10%)
[3]; [6]
  Number of strains having shown growth: 3
  Percentage of strains having shown growth: (43%)
[3]; [7]
  Number of strains having shown growth: 3
  Percentage of strains having shown growth: (43%)
[3]; [8]
  Number of strains having shown growth: 3
  Percentage of strains having shown growth: (43%)
[4]; [6]
  Number of strains having shown growth: 7
  Percentage of strains having shown growth: (70%)
[4]; [7]
  Number of strains having shown growth: 6
  Percentage of strains having shown growth: (60%)
[4]; [8]
  Number of strains having shown growth: 5
  Percentage of strains having shown growth: (50%)

## C[C@@H]1O[C@@H]1P(=O)(O)O [fosfomycin]
[1]; [9]
  Number of strains having shown growth: 20
  Percentage of strains having shown growth: (100%)
[1]; [10]
  Number of strains having shown growth: 20
  Percentage of strains having shown growth: (100%)
[1]; [11]
  Number of strains having shown growth: 20
  Percentage of strains having shown growth: (100%)
[2]; [9]
  Number of strains having shown growth: 15
  Percentage of strains having shown growth: (30%)
[2]; [10]
  Number of strains having shown growth: 8
  Percentage of strains having shown growth: (16%)
[2]; [11]
  Number of strains having shown growth: 6
  Percentage of strains having shown growth: (12%)
[3]; [9]
  Number of strains having shown growth: 3
  Percentage of strains having shown growth: (43%)
[3]; [10]
  Number of strains having shown growth: 2
  Percentage of strains having shown growth: (29%)
[3]; [11]
  Number of strains having shown growth: 2
  Percentage of strains having shown growth: (29%)
[4]; [9]
  Number of strains having shown growth: 0
[4]; [10]
  Number of strains having shown growth: 0
[4]; [11]
  Number of strains having shown growth: 0

## C[C@@H]1[C@H](O)[C@@H](C)/C=C/C=C/C=C/C=C/C=C/C=C/C=C/[C@H](O[C@@H]2O[C@H](C)[C@@H](O)[C@H](N)[C@@H]2O)C[C@@H]2O[C@](O)(C[C@@H](O)C[C@@H](O)[C@H](O)CC[C@@H](O)C[C@@H](O)CC(=O)O[C@H]1C)C[C@H](O)[C@H]2C(=O)O [amphotericin B]
[1]; [12]
  Number of strains having shown growth: 20
  Percentage of strains having shown growth: (100%)
[1]; [13]
  Number of strains having shown growth: 20
  Percentage of strains having shown growth: (100%)
[1]; [14]
  Number of strains having shown growth: 20
  Percentage of strains having shown growth: (100%)
[5]; [12]
  Number of strains having shown growth: 6
  Percentage of strains having shown growth: (75%)
[5]; [13]
  Number of strains having shown growth: 4
  Percentage of strains having shown growth: (50%)
[5]; [14]
  Number of strains having shown growth: 3
  Percentage of strains having shown growth: (37.5%)

## CCn1cc(C(=O)O)c(=O)c2ccc(C)nc21 [nalidixic acid]
[1]; [15]
  Number of strains having shown growth: 20
  Percentage of strains having shown growth: (100%)
[1]; [6]
  Number of strains having shown growth: 20
  Percentage of strains having shown growth: (100%)
[1]; [7]
  Number of strains having shown growth: 20
  Percentage of strains having shown growth: (100%)
[2]; [15]
  Number of strains having shown growth: 50
  Percentage of strains having shown growth: (100%)
[2]; [6]
  Number of strains having shown growth: 43
  Percentage of strains having shown growth: (86%)
[2]; [7]
  Number of strains having shown growth: 35
  Percentage of strains having shown growth: (70%)
[3]; [15]
  Number of strains having shown growth: 4
  Percentage of strains having shown growth: (57%)
[3]; [6]
  Number of strains having shown growth: 0
[3]; [7]
  Number of strains having shown growth: 0
[4]; [15]
  Number of strains having shown growth: 9
  Percentage of strains having shown growth: (90%)
[4]; [6]
  Number of strains having shown growth: 8
  Percentage of strains having shown growth: (80%)
[4]; [7]
  Number of strains having shown growth: 7
  Percentage of strains having shown growth: (70%)

## CN(C)c1ccc(C(=C2C=CC(=[N+](C)C)C=C2)c2ccccc2)cc1 [malachite green]
[1]; [16]
  Number of strains having shown growth: 16
  Percentage of strains having shown growth: (80%)
[1]; [17]
  Number of strains having shown growth: 20
  Percentage of strains having shown growth: (100%)
[1]; [18]
  Number of strains having shown growth: 20
  Percentage of strains having shown growth: (100%)
[2]; [16]
  Number of strains having shown growth: 50
  Percentage of strains having shown growth: (100%)
[2]; [17]
  Number of strains having shown growth: 50
  Percentage of strains having shown growth: (100%)
[2]; [18]
  Number of strains having shown growth: 50
  Percentage of strains having shown growth: (100%)
[3]; [16]
  Number of strains having shown growth: 7
  Percentage of strains having shown growth: (100%)
[3]; [17]
  Number of strains having shown growth: 7
  Percentage of strains having shown growth: (100%)
[3]; [18]
  Number of strains having shown growth: 7
  Percentage of strains having shown growth: (100%)
[4]; [16]
  Number of strains having shown growth: 10
  Percentage of strains having shown growth: (100%)
[4]; [17]
  Number of strains having shown growth: 10
  Percentage of strains having shown growth: (100%)
[4]; [18]
  Number of strains having shown growth: 9
  Percentage of strains having shown growth: (90%)

## CN[C@H](CC(C)C)C(=O)N[C@H]1C(=O)N[C@@H](CC(N)=O)C(=O)N[C@H]2C(=O)N[C@H]3C(=O)N[C@H](C(=O)N[C@H](C(=O)O)c4cc(O)cc(O)c4-c4cc3ccc4O)[C@H](O)c3ccc(c(Cl)c3)Oc3cc2cc(c3O[C@@H]2O[C@H](CO)[C@@H](O)[C@H](O)[C@H]2O[C@H]2C[C@](C)(N)[C@H](O)[C@H](C)O2)Oc2ccc(cc2Cl)[C@H]1O [vancomycin]
[1]; [19]
  Number of strains having shown growth: 19
  Percentage of strains having shown growth: (95%)
[1]; [12]
  Number of strains having shown growth: 19
  Percentage of strains having shown growth: (95%)
[1]; [13]
  Number of strains having shown growth: 19
  Percentage of strains having shown growth: (95%)
[2]; [19]
  Number of strains having shown growth: 50
  Percentage of strains having shown growth: (100%)
[2]; [20]
  Number of strains having shown growth: 50
  Percentage of strains having shown growth: (100%)
[2]; [13]
  Number of strains having shown growth: 50
  Percentage of strains having shown growth: (100%)
[3]; [19]
  Number of strains having shown growth: 7
  Percentage of strains having shown growth: (100%)
[3]; [20]
  Number of strains having shown growth: 7
  Percentage of strains having shown growth: (100%)
[3]; [13]
  Number of strains having shown growth: 7
  Percentage of strains having shown growth: (100%)
[4]; [19]
  Number of strains having shown growth: 0
[4]; [20]
  Number of strains having shown growth: 0
[4]; [13]
  Number of strains having shown growth: 0
